Assay results taken from patent US20090304692A1, “TRIAZINE COMPOUNDS AS PI3 KINASE AND MTOR INHIBITORS” (Wyeth, priority 2008, published 2009).
Values joined by “and” are separate entries in the source; they are usually repeats but may differ in a detail not shown here. Equal entries are not always repeated. Where two headings read alike, the source gives them in different places.

Experiments:
PI3K-γ = PI3K-γ (Homo sapiens, UniProt P48736); assay: PI3K-gamma fluorescence polarization assay; conditions: read-out: IC50 PI3Kγ
[1] = system: human prostate PC3-mm2 tumor cell line; assay: In vitro cell culture growth assay (MTS), PC3-mm2; type: cell-based; conditions: Homo sapiens, PC3MM2, 72 h, three days after drug treatment, read-out: IC50 PC3-mm2
PI3K-α = PI3K-α (Homo sapiens, UniProt P42336); assay: PI3K-alpha fluorescence polarization assay; conditions: read-out: IC50 PI3Kα
[2] = system: human breast MDA-MB-361 tumor cell line; assay: In vitro cell culture growth assay (MTS), MDA-MB-361; type: cell-based; conditions: Homo sapiens, three days after drug treatment, read-out: IC50 MDA-MB-361
Human mTOR (FLAG-TOR) = Human mTOR (FLAG-TOR) (Homo sapiens, UniProt P42345); assay: mTOR kinase assay (DELFIA format, purified enzyme); type: biochemical; conditions: read-out: IC50 mTOR
[3] = MTS cell growth assay, PC3-mm2 cells
[4] = 72 h, MTS cell growth assay, MDA-MB-361 cells
[5] = MDA-MB-361, 72 h, MTS cell growth assay
[6] = MDA-MB-361, 72 h, MTS cell growth assay, MDA-MB-361 cells

Chain of PI3K-α (P42336 whole entry, species assumed): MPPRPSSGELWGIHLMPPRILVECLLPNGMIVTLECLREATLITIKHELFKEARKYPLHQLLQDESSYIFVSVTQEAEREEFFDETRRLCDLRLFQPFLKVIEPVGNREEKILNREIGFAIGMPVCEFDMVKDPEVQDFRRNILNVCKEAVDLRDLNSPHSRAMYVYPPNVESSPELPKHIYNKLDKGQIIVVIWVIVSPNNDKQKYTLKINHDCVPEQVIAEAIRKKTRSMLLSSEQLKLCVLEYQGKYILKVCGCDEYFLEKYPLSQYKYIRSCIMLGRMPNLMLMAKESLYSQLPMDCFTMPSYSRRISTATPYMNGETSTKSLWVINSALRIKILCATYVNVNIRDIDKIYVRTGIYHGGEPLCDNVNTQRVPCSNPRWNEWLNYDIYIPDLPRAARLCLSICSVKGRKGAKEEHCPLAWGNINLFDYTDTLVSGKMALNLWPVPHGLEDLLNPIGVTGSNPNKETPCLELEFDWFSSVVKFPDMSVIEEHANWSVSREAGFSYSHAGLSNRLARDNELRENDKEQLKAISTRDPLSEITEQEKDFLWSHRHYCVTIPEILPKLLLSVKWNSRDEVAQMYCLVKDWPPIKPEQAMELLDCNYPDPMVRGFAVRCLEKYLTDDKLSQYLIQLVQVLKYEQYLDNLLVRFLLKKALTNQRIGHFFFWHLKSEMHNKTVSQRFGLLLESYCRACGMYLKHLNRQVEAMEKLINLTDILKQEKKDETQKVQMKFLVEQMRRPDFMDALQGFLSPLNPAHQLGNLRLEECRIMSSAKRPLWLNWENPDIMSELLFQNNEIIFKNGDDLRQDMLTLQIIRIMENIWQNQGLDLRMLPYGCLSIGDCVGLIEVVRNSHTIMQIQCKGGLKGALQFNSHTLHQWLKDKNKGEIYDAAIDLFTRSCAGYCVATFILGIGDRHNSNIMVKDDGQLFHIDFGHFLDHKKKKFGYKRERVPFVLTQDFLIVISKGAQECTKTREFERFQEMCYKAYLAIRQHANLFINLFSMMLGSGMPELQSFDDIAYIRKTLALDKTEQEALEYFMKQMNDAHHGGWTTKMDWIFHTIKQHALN
Chain of PI3K-α (P27986 whole entry partner, species assumed): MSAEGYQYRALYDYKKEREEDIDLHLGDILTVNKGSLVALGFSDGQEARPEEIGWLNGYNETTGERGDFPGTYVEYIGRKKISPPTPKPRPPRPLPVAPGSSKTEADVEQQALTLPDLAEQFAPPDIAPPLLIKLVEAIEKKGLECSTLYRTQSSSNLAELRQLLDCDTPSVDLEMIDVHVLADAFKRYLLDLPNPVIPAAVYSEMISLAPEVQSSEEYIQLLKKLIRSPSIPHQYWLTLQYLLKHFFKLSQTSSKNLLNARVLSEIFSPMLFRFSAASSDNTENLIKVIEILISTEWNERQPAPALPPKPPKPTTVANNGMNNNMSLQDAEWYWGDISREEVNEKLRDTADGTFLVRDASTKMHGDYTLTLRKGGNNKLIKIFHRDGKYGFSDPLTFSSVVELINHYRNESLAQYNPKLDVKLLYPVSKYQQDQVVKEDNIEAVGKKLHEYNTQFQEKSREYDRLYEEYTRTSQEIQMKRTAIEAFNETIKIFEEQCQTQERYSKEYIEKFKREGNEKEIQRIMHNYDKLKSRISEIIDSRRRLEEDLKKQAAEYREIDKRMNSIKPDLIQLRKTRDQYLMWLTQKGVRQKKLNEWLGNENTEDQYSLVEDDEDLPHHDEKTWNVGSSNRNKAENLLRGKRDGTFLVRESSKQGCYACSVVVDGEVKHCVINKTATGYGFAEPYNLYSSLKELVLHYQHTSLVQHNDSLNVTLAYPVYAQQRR
Chain of PI3K-γ (P48736 whole entry, species assumed): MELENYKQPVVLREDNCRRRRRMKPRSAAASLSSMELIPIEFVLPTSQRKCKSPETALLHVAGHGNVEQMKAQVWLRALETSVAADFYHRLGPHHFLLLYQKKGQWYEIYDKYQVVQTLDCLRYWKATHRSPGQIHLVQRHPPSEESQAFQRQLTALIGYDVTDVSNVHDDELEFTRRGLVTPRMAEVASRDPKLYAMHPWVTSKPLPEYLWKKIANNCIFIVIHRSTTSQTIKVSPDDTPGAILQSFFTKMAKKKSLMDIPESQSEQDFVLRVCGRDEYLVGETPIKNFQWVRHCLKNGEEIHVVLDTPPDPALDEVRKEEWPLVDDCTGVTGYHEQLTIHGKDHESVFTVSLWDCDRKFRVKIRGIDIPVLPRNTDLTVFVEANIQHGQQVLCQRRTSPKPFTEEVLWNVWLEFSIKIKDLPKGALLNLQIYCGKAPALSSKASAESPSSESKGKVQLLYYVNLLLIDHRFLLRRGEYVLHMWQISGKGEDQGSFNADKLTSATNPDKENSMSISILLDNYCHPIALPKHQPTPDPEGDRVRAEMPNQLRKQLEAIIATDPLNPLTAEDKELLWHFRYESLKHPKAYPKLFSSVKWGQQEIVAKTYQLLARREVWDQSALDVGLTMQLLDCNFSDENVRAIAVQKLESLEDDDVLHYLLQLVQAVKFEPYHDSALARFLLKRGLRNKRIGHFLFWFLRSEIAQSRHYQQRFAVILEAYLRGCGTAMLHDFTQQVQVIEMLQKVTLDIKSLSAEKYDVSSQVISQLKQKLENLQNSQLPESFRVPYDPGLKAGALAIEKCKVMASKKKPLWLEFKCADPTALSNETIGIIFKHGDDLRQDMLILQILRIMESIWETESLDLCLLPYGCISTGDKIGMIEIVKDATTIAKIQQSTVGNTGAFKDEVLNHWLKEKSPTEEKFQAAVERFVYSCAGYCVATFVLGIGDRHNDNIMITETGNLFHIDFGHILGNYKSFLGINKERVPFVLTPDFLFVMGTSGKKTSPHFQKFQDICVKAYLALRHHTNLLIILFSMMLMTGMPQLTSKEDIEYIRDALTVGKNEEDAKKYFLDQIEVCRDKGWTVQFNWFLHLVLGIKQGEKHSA
Chain of Human mTOR (FLAG-TOR) (P42345 1360-2549 limits assumed): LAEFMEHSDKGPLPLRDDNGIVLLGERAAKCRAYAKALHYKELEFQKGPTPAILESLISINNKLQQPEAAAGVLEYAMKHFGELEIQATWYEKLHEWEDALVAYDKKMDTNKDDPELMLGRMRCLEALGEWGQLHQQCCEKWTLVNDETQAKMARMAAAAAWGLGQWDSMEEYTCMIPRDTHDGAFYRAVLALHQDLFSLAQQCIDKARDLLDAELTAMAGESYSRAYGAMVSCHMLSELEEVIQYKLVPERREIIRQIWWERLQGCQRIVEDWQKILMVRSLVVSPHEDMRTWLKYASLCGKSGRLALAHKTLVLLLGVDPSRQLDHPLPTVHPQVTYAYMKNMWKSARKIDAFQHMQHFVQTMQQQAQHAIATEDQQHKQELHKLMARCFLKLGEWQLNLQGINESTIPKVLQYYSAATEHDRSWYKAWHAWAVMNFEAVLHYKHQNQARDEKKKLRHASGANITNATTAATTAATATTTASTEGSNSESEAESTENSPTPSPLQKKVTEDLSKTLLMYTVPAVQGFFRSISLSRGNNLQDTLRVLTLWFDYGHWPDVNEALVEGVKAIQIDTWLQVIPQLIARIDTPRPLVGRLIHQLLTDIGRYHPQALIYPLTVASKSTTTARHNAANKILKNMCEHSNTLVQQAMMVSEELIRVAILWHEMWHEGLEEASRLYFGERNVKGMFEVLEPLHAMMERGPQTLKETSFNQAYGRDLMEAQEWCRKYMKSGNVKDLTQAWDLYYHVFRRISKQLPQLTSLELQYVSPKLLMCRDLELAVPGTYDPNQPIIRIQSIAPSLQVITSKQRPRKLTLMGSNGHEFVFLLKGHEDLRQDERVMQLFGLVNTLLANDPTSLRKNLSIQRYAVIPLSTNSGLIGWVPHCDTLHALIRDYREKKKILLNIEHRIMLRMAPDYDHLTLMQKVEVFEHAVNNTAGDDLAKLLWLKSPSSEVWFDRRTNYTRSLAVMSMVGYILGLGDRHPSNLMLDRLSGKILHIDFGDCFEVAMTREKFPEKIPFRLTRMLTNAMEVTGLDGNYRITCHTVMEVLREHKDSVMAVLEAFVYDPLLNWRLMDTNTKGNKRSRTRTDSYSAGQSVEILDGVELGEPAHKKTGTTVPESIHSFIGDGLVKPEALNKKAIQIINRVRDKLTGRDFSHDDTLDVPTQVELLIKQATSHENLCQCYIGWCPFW

Structure (SMILES)	IC50 (PI3K-γ)	IC50 (PI3K-α)	IC50 (Human mTOR (FLAG-TOR))	IC50 ([1]; MTS cell growth assay)	IC50 [2, 5]	IC50 [2, 6]	IC50 (PI3K-γ; listed as 507)	IC50 (PI3K-α; listed as 507)	IC50 [1, 3]	IC50 [2, 4]	IC50 (PI3K-γ; listed as 670)	IC50 (PI3K-α; listed as 670)	IC50 ([1]; PC3-mm2 cells, MTS)	IC50 ([2]; MDA-MB-361, 72 h, MDA-MB-361 cells, MTS)
COC(=O)c1ccc(NC(=O)Nc2ccc(-c3nc(N4CCOCC4)nc(N4C5COCC4COC5)n3)cc2)cc1 [Example 770, methyl 4-[({4-[4-(3,7-dioxa-9-azabicyclo[3.3.1]non-9-yl)-6-morpholin-4-yl-1,3,5-triazin-2-yl]phenyl}carbamoyl)amino]benzoate]	99 nM	30.5 nM	0.27 nM						25 nM	40 nM				
CNC(=O)c1ccc(NC(=O)Nc2ccc(-c3nc(N4CCOCC4)nc(N4C5CCC4COC5)n3)cc2)cc1 [Example 696, N-methyl-4-[({4-[4-morpholin-4-yl-6-(3-oxa-8-azabicyclo[3.2.1]oct-8-yl)-1,3,5-triazin-2-yl]phenyl}carbamoyl)amino]benzamide]	73.5 nM	4.5 nM	0.275 nM			13 nM			13 nM					
O=C(Nc1ccncc1)Nc1ccc(-c2nc(NCC3CNC3)nc(N3CCOCC3)n2)cc1 [Example 105, 1-(4-{4-[(azetidin-3-ylmethyl)-amino]-6-morpholin-4-yl-[1,3,5]triazin-2-yl}-phenyl)-3-pyridin-4-yl-urea]	112 nM	14 nM	30.5 nM	> 10000 nM	3710 nM									
CN1CCN(c2ccc(NC(=O)Nc3ccc(-c4nc(N5CCOCC5)nc(N5C6CCC5COC6)n4)cc3)cn2)CC1 [Example 766, 1-[6-(4-methylpiperazin-1-yl)pyridin-3-yl]-3-{4-[4-morpholin-4-yl-6-(3-oxa-8-azabicyclo[3.2.1]oct-8-yl)-1,3,5-triazin-2-yl]phenyl}urea]	85.5 nM	24 nM	1.31 nM						50 nM	26 nM				
CN1CCN(C(=O)c2ccc(NC(=O)Nc3ccc(-c4nc(C5=CCOCC5)nc(N5CCOCC5)n4)cc3)cc2)CC1 [Example 163, 1-{4-[4-(3,6-dihydro-2H-pyran-4-yl)-6-morpholin-4-yl-1,3,5-triazin-2-yl]phenyl}-3-{4-[(4-methylpiperazin-1-yl)carbonyl]phenyl}urea]	9 nM	2 nM	3.9 nM and 3.2 nM	28.3 nM	10.7 nM	10.7 nM	8.7 nM	1.6 nM	28.3 nM					
NC(=O)c1ccc(NC(=O)Nc2ccc(-c3nc(N4CCOCC4)nc(N4C5CCC4COC5)n3)cc2)cc1 [Example 35, 4-[({4-[4-morpholin-4-yl-6-(3-oxa-8-azabicyclo[3.2.1]oct-8-yl)-1,3,5-triazin-2-yl]phenyl}carbamoyl)amino]benzamide]	54 nM	6 nM	0.21 nM and 0.212 nM	27.5 nM	22.5 nM				27.5 nM		53 nM	5 nM		
O=C(Nc1ccc(C(=O)NCCc2ccncc2)cc1)Nc1ccc(-c2nc(N3CCOCC3)nc(N3C4COCC3COC4)n2)cc1 [Example 779, 4-[({4-[4-(3,7-dioxa-9-azabicyclo[3.3.1]non-9-yl)-6-morpholin-4-yl-1,3,5-triazin-2-yl]phenyl}carbamoyl)amino]-N-(2-pyridin-4-ylethyl)benzamide]	49.7 nM	4.2 nM	0.23 nM						23 nM	13 nM				
CC(O)c1ccc(NC(=O)Nc2ccc(-c3nc(N4CCOCC4)nc(N4CCOC[C@@H]4C)n3)cc2)cc1 (stereo partly drawn) [Example 93, 1-[4-(1-hydroxyethyl)phenyl]-3-(4-{4-[(3S)-3-methylmorpholin-4-yl]-6-morpholin-4-yl-1,3,5-triazin-2-yl}phenyl)urea]	133 nM	12 nM	8.55 nM	60 nM	42 nM									
OCc1cccc(-c2nc(N3CCOCC3)nc(N3C4CCC3COC4)n2)c1 [Example 682, {3-[4-morpholin-4-yl-6-(3-oxa-8-azabicyclo[3.2.1]oct-8-yl)-1,3,5-triazin-2-yl]phenyl}methanol]	1280 nM	84.3 nM	88.5 nM						766 nM	1040 nM				
O=C(Nc1ccc(C(=O)N2CCC(N3CCCC3)CC2)cc1)Nc1ccc(-c2nc(N3CCOCC3)nc(N3C4CCCC3COC4)n2)cc1 [Example 800, 1-{4-[4-morpholin-4-yl-6-(3-oxa-9-azabicyclo[3.3.1]non-9-yl)-1,3,5-triazin-2-yl]phenyl}-3-{4-[(4-pyrrolidin-1-ylpiperidin-1-yl)carbonyl]phenyl}urea]	35.5 nM	5.5 nM	0.72 nM										11 nM	1 nM
O=C(Nc1ccc(C(=O)NCCN2CCCCC2)cc1)Nc1ccc(-c2nc(N3CCOCC3)nc(N3C4CCC3COC4)n2)cc1 [Example 759, 4-[({4-[4-morpholin-4-yl-6-(3-oxa-8-azabicyclo[3.2.1]oct-8-yl)-1,3,5-triazin-2-yl]phenyl}carbamoyl)amino]-N-(2-piperidin-1-ylethyl)benzamide]	38 nM	2 nM	0.16 nM						10 nM	1 nM				
O=C(Nc1ccc(-c2nc(OC3CCOCC3)nc(N3CCOCC3)n2)cc1)Nc1cccnc1 [Example 61, 1-{4-[4-morpholin-4-yl-6-(tetrahydro-2H-pyran-4-yloxy)-1,3,5-triazin-2-yl]phenyl}-3-pyridin-3-ylurea]	32 nM	9 nM	0.76 nM	23 nM	48 nM									

Continued, in another order:

IC50 (PI3K-γ)	IC50 (PI3K-α)	IC50 (Human mTOR (FLAG-TOR))	IC50 ([1]; MTS cell growth assay)	IC50 [2, 5]	IC50 [2, 6]	IC50 (PI3K-γ; listed as 507)	IC50 (PI3K-α; listed as 507)	Structure (SMILES)	IC50 [1, 3]	IC50 [2, 4]	IC50 (PI3K-γ; listed as 670)	IC50 (PI3K-α; listed as 670)	IC50 ([1]; PC3-mm2 cells, MTS)	IC50 ([2]; MDA-MB-361, 72 h, MDA-MB-361 cells, MTS)
63 nM	4 nM	2.5 nM	121 nM	20 nM				CCCCc1nc(-c2ccc(NC(=O)Nc3ccc(C(=O)NCCN(C)C)cc3)cc2)nc(N2CCOCC2)n1 [Example 231, 4-({[4-(4-butyl-6-morpholin-4-yl-1,3,5-triazin-2-yl)phenyl]carbamoyl}amino)-N-[2-(dimethylamino)ethyl]benzamide]						
74.5 nM	15 nM	1 nM						CCC(C)N1CCN(C(=O)c2ccc(NC(=O)Nc3ccc(-c4nc(N5CCOC[C@@H]5C)nc(N5CCOC[C@@H]5C)n4)cc3)cc2)CC1 (stereo partly drawn) [Example 632, 1-(4-{4,6-bis[(3S)-3-methylmorpholin-4-yl]-1,3,5-triazin-2-yl}phenyl)-3-(4-{[4-(1-methylpropyl)piperazin-1-yl]carbonyl}phenyl)urea]	38 nM	9 nM				
34 nM	3 nM	80 nM	219 nM	73 nM				CCc1nc(-c2ccc(NC(=O)Nc3ccc(C(=O)NC4CN(C)C4)cc3)cc2)nc(N2CCOCC2)n1 [Example 299, 4-({[4-(4-ethyl-6-morpholin-4-yl-1,3,5-triazin-2-yl)phenyl]carbamoyl}amino)-N-(1-methylazetidin-3-yl)benzamide]						
70 nM	11 nM	7.75 nM			68 nM			Cc1ccc(-c2nc(-c3ccc(NC(=O)Nc4ccc(C(=O)N5CCN(C(C)C)CC5)cc4)cc3)nc(N3CCOCC3)n2)cc1 [Example 547, 1-{4-[(4-isopropylpiperazin-1-yl)carbonyl]phenyl}-3-{4-[4-(4-methylphenyl)-6-morpholin-4-yl-1,3,5-triazin-2-yl]phenyl}urea]	197 nM					
22 nM	1 nM	5.2 nM	35 nM	4 nM				CC(C)Cc1nc(-c2ccc(NC(=O)Nc3ccc(C(=O)N(C)CCN(C)C)cc3)cc2)nc(N2CCOCC2)n1 [Example 324, N-[2-(dimethylamino)ethyl]-N-methyl-4-[({4-[4-(2-methylpropyl)-6-morpholin-4-yl-1,3,5-triazin-2-yl]phenyl}carbamoyl)amino]benzamide]						
23 nM	2 nM	13 nM	129 nM	68 nM				CCc1nc(-c2ccc(NC(=O)Nc3ccc(C(=O)NC4CCN(C)CC4)cc3)cc2)nc(N2CCOCC2)n1 [Example 271, 4-({[4-(4-ethyl-6-morpholin-4-yl-1,3,5-triazin-2-yl)phenyl]carbamoyl}amino)-N-(1-methylpiperidin-4-yl)benzamide]						
199 nM	6 nM	1.35 nM						CC(C)(C)OC(=O)N1CCC(Oc2nc(-c3ccc(NC(=O)Nc4ccncc4)cc3)nc(N3CCOCC3)n2)CC1 [Example 691, tert-butyl 4-[(4-morpholin-4-yl-6-{4-[(pyridin-4-ylcarbamoyl)amino]phenyl}-1,3,5-triazin-2-yl)oxy]piperidine-1-carboxylate]	131 nM	52 nM				
81 nM	19 nM	29 nM	189 nM	133 nM				CCc1nc(-c2ccc(NC(=O)Nc3ccc(OCCN(C)C)cc3)cc2)nc(N2CCOCC2)n1 [Example 295, 1-{4-[2-(dimethylamino)ethoxy]phenyl}-3-[4-(4-ethyl-6-morpholin-4-yl-1,3,5-triazin-2-yl)phenyl]urea]						
